Patent US9492425B2 (priority 2008, dated 2016)

What was measured:
[1] = Comparative pharmacokinetic study of genistein and crystalline genistein sodium salt dihydrate, intraduodenal and intravenous; conditions: rats
Protocol: (§2) Genistein and crystalline genistein sodium salt dihydrate were stored at room temperature under desiccant and protected from light. The dosing solutions were prepared fresh from powders on the day of dosing. The dosing solution for intravenous administration (IV) was prepared at 1 mg/mL (free acid) in 50:50 DMSO:saline. The dosing solutions for intraduodenal administration (ID) were prepared at 2 mg/mL (genistein free acid) in a 0.2% sodium carboxymethyl cellulose (Na CMC) solution in water.
(§3) The pharmacokinetics of genistein was evaluated in fasted male Sprague-Dawley rats. Each animal was fitted with a jugular vein cannula (JVC) for blood sampling. Animals intended for intravenous dosing were fitted with an additional JVC for dose administration. Animals intended for intraduodenal dosing were fitted with an intraduodenal cannula (IDC) for dose administration. Surgically modified animals were housed one per cage. All animals were supplied with a commercial rodent diet (LabDiet, Certified Rodent Diet #5002) ad libitum prior to study initiation. […]
(§4) Each blood sample was collected from the rats via a jugular vein cannula and placed into chilled polypropylene tubes containing sodium heparin as an anticoagulant. […] The total concentration of genistein in plasma samples were analyzed by LC-MS/MS after an overnight incubation with glucuronidase/arylsulfatase enzyme mixture. Pharmacokinetic parameters were calculated using the WinNonlin software.
(§5) An LC-MS/MS analytical method for the determination of genistein in rat plasma was developed. Prior to sample analysis, a standard curve was analyzed to determine the specificity, range, and linearity of the method. Total genistein in plasma samples was determined by pre-treating all samples with β-glucuronidase/arylsulfatase enzymes and incubating prior to analysis. […]
(§6) Individual plasma concentrations versus time data for genistein were subjected to non-compartmental analysis using the pharmacokinetic program WinNonlin v. […] Plasma concentrations below the limit of quantitation (10 ng/mL) were assigned a value of zero for PK analysis only.

[2] = Gravimetric vapor sorption (GVS); format: physicochemical; conditions: for maximum of water adsorbed (GVS): 0-90% RH sorption cycle; for moisture change (GVS): between 20 and 70 RH % (typical working range of material)
Protocol: Approximately 15 mg of sample was placed into a wire-mesh vapor sorption balance pan and loaded into an SMS intrinsic vapor sorption balance supplied (Surface Measurement Systems Instruments). The sample was then dried by maintaining a 0% humidity environment until no further weight change was recorded. Subsequently, the sample was then subjected to a ramping profile from 0-90% RH at 10% RH increments, maintaining the sample at each step until equilibration had been attained (99.5% step completion). Upon reaching equilibration, the % RH within the apparatus was ramped to the next step and the equilibration procedure repeated. After completion of the sorption cycle, the sample was then dried using the same procedure. The weight change during the sorption/desorption cycles were then monitored, allowing for the hygroscopic nature of the sample to be determined.

[3] = Solubility in different organic solvents (aliquot addition until dissolution); format: physicochemical
Protocol: Solubility in different organic solvents was measured using the following protocol. Approximately 25 mg portions of genistein and crystalline genistein sodium dihydrate salt were placed in 48 different vials, separately. 5 volume aliquots of each solvent were added exclusively to a vial. Between each addition, the mixture was checked for dissolution and if no dissolution was apparent, the procedure was continued until dissolution was observed or when 50 volumes had been added.

[4] = Disproportionation study (slurry in distilled water ca. 48 hours, XRPD, pH of supernatant); format: physicochemical; conditions: slurried in distilled water for ca. 48 hours
Protocol: (§1) A 50 mg sample of crystalline genistein sodium salt dihydrate was slurried in 250 μL distilled water for ca. 48 hours and then checked by XRPD for disproportionation. The pH of the supernatant was also measured using a Corning 240 pH meter. […] The pH of the supernatant after slurrying was 7.1.
as §1, with “A” for “A 50 mg”, “potassium” for “sodium”, “in” for “in 250 μL”, “liquid” for “after slurrying”, “7.3 indicating no disproportionation.” for “7.1.”

[5] = SuperSol 1000 kinetic and equilibrium solubility assay
Protocol: Since both compounds form suspensions in pure deionized H2O, physicochemical properties were assessed from solutions of 100% EtOH as well as mixtures of dH2O and EtOH, specifically, EtOH 50/50 (vol/vol) and EtOH/dH2O 75/25 (vol/vol) according to European Pharmacopeia guidelines 01/2008, Section 2.9.3., Table 2.9.3.5. • The following parameters were measured: • t[MSS] defined as: Time from start of analysis to Maximum Solubilization Speed (min) • C[MSS] defined as: Early kinetic solubility as expressed as concentration at Maximum Solubilization Speed (mg×I^−1) • C[Eq] defined as: Late kinetic solubility as expressed as concentration at Equilibrium Kinetic Solubility (mg×I^−1) • t[Eq] defined as: Time from start of analysis to Equilibrium Kinetic solubility (min) • ΔC [CEq−CMSS] defined as: Difference in concentration between Early and Late Kinetic Solubility as defined above (mg×I^−1) • Δt [CEq−CMSS] defined as: Difference in time between Early and Late Kinetic Solubility endpoints (min) • MSS defined as: Maximum Solubility Speed defined by C[MSS]/t[Mss] (mg×I^−1×min^−1) • ISI defined as: Intrinsic Solubility Index defined by ΔC [CEq−CMSS]/Δt [CEq−CMSS] • The higher the ISI value, the faster the solubilization and the stronger the relative contribution of the late, intrinsic kinetic equilibrium solubility C[Eq]. • KSR defined as: Kinetic Solubility ratio given by C[MSS]/C[Eq]. • The KSR is the numerical ratio indicator of the relative contribution of the early kinetic Solubility to the Overall Late Kinetic Equilibrium Solubility. The higher the KSR Value, the stronger the relative contribution of the early kinetic solubility C[MSS].

[6] = male, Sprague-Dawley, rat, in vivo
Protocol: as §2, §3, §4, §5, §6

[7] = Stability study (80° C., 40° C./75 RH %, light; XRPD after 7 days); conditions: 40° C./75 RH % for 7 days
Protocol: Sample stability was tested at 80° C. for 7 days and at 40° C./75 RH % for 7 days. Observations such as color change were noted after 7 days and XRPD of samples were taken after 7 days to investigate any solid form change.

[8] = Aqueous solubility (slurry ca. 24 hours, filtered, HPLC-UV); format: physicochemical; conditions: aqueous buffer, thermodynamic from solid
Protocol: Aqueous solubility was measured using the following protocol. Slurries of genistein and of crystalline genistein sodium dihydrate salt were made up in aqueous media in which pH was set at 4.5, 6.7, and 7.5, each slurry was shaken at ambient temperature for ca. 24 hours and then filtered using a 0.2 μm filter into a clean vial. The saturated solutions were then diluted and analyzed for API (genistein) content using N—Ac-DL-Methionine on a Chirobiotic T HPLC column and UV detector set at λmax=270 nm. The mobile phase was acetonitrile/water run in isocratic mode over a 30 minute period. The results are presented in Table 3, (BDL=below detection limits).
The aqueous solubility of crystalline genistein potassium salt dihydrate was measured using the protocol described in Example 1.7. Table 16 compares the aqueous solubilities of crystalline genistein potassium salt dihydrate with that of genistein.

O.O.O=c1c(-c2ccc(O)cc2)coc2cc(O)cc(O)c12.[Na] [genistein sodium salt dihydrate]
time after ID dosing at which maximum plasma concentration (Cmax) was observed ([1]; intraduodenal dosing, mean plasma profile (FIG. 13)): ≤ 15 min | pharmacokinetic profile following IV dosing, compared with genistein ([1]; intravenous 1 mg/kg): not significantly different | maximum of water adsorbed (GVS) [2]: 45 wt % | moisture change (GVS) [2]: ca. 2% | Solubility ([3]; 1,4-dioxane): <10.6 mg/mL | Solubility ([3]; Acetone/IPA (50:50)): 20.2 mg/mL | Solubility ([3]; Acetonitrile (MeCN)): <10.4 mg/mL | Solubility ([3]; Cyclohexane): <10.9 mg/mL | Solubility ([3]; Dichloromethane (DCM)): <10.8 mg/mL | Solubility ([3]; Diisopropylether (DIPE)): <9.7 mg/mL | Solubility ([3]; Heptane): <9.9 mg/mL | Solubility ([3]; Methanol (MeOH)): <8.8 mg/mL | Solubility ([3]; Methyl isobutyl ketone (MIBK)): <9.0 mg/mL | Solubility ([3]; Octanol): <11 mg/mL | Solubility ([3]; Tetrahydrofuran (THF)): <10.4 mg/mL | Solubility ([3]; Toluene): <9.9 mg/mL | Solubility ([3]; Toluene/Dioxane (50:50)): <9.7 mg/mL | disproportionation (XRPD) [4]: No signs of disproportionation | pH of the supernatant after slurrying [4]: 7.1 | C[Eq] ([5]; EtOH 100%): 11.20 mg×I^−1 | C[MSS] ([5]; EtOH 100%): 10.85 mg×I^−1 | ISI ([5]; EtOH 100%): 0.07 | KSR ([5]; EtOH 100%): 0.97 | KSR, assessment in words ([5]; EtOH 100%): excellent | MSS ([5]; EtOH 100%): 36.90 mg×I^−1×min^−1 | MSS, assessment in words ([5]; EtOH 100%): excellent | ΔC [C, − CMSS] ([5]; EtOH 100%): 0.35 mg×I^−1 | C[Eq] ([5]; EtOH/dH2O 50/50 (vol/vol)): 17.40 mg×I^−1 | C[MSS] ([5]; EtOH/dH2O 50/50 (vol/vol)): 14.67 mg×I^−1 | ISI ([5]; EtOH/dH2O 50/50 (vol/vol)): 0.60 | KSR ([5]; EtOH/dH2O 50/50 (vol/vol)): 0.84 | KSR, assessment in words ([5]; EtOH/dH2O 50/50 (vol/vol)): excellent | MSS ([5]; EtOH/dH2O 50/50 (vol/vol)): 20.66 mg×I^−1×min^−1 | MSS, assessment in words ([5]; EtOH/dH2O 50/50 (vol/vol)): excellent | ΔC [CEq − CMSS] ([5]; EtOH/dH2O 50/50 (vol/vol)): 2.73 mg×I^−1 | C[Eq] ([5]; EtOH/dH2O 75/25 (vol/vol)): 15.86 mg×I^−1 | C[MSS] ([5]; EtOH/dH2O 75/25 (vol/vol)): 11.20 mg×I^−1 | ISI ([5]; EtOH/dH2O 75/25 (vol/vol)): 1.26 | KSR ([5]; EtOH/dH2O 75/25 (vol/vol)): 0.71 | KSR, assessment in words ([5]; EtOH/dH2O 75/25 (vol/vol)): excellent | MSS ([5]; EtOH/dH2O 75/25 (vol/vol)): 37.33 mg×I^−1×min^−1 | MSS, assessment in words ([5]; EtOH/dH2O 75/25 (vol/vol)): excellent | ΔC [CEq − CMSS] ([5]; EtOH/dH2O 75/25 (vol/vol)): 4.66 mg×I^−1 | mean peak plasma concentration (Cmax) fold higher compared to genistein [6]: 4.2 fold

O=c1c(-c2ccc(O)cc2)coc2cc(O)cc(O)c12 [Genistein, 4′,5,7-trihydroxyisoflavone-5,7-dihydroxy-3-(4-hydroxyphenyl)-4H-1-benzopyran-4-one, reference compound]
Solubility ([3]; 1,4-dioxane): <10.3 mg/mL | Solubility ([3]; Acetone/Water (50:50)): <10.1 mg/mL | Solubility ([3]; Acetonitrile (MeCN)): <10.1 mg/mL | Solubility ([3]; Cyclohexane): <10.7 mg/mL | Solubility ([3]; Dichloromethane (DCM)): <10.3 mg/mL | Solubility ([3]; Diisopropylether (DIPE)): <10.6 mg/mL | Solubility ([3]; Ethanol (EtOH)): <10.8 mg/mL | Solubility ([3]; Methanol (MeOH)): <10.6 mg/mL | Solubility ([3]; Methyl acetate (MeOAc)): <10.3 mg/mL | Solubility ([3]; Methyl isobutyl ketone (MIBK)): <10.1 mg/mL | Solubility ([3]; Methylethyl ketone (MEK)): <10.8 mg/mL | Solubility ([3]; Toluene): <10.1 mg/mL | Solubility ([3]; Toluene/Dioxane (50:50)): <10.1 mg/mL | C[Eq] ([5]; EtOH 100%): 13.79 mg×I^−1 | C[MSS] ([5]; EtOH 100%): 5.81 mg×I^−1 | ISI ([5]; EtOH 100%): 2.11 | KSR ([5]; EtOH 100%): 0.42 | KSR, assessment in words ([5]; EtOH 100%): acceptable | MSS ([5]; EtOH 100%): 23.81 mg×I^−1×min^−1 | MSS, assessment in words ([5]; EtOH 100%): good | ΔC [C, − CMSS] ([5]; EtOH 100%): 7.98 mg×I^−1 | C[Eq] ([5]; EtOH/dH2O 50/50 (vol/vol)): 12.87 mg×I^−1 | C[MSS] ([5]; EtOH/dH2O 50/50 (vol/vol)): 7.43 mg×I^−1 | ISI ([5]; EtOH/dH2O 50/50 (vol/vol)): 1.55 | KSR ([5]; EtOH/dH2O 50/50 (vol/vol)): 0.58 | KSR, assessment in words ([5]; EtOH/dH2O 50/50 (vol/vol)): acceptable | MSS ([5]; EtOH/dH2O 50/50 (vol/vol)): 12.18 mg×I^−1×min^−1 | MSS, assessment in words ([5]; EtOH/dH2O 50/50 (vol/vol)): good | ΔC [CEq − CMSS] ([5]; EtOH/dH2O 50/50 (vol/vol)): 5.44 mg×I^−1 | C[Eq] ([5]; EtOH/dH2O 75/25 (vol/vol)): 14.03 mg×I^−1 | C[MSS] ([5]; EtOH/dH2O 75/25 (vol/vol)): 8.52 mg×I^−1 | ISI ([5]; EtOH/dH2O 75/25 (vol/vol)): 1.49 | KSR ([5]; EtOH/dH2O 75/25 (vol/vol)): 0.61 | KSR, assessment in words ([5]; EtOH/dH2O 75/25 (vol/vol)): good | MSS ([5]; EtOH/dH2O 75/25 (vol/vol)): 19.67 mg×I^−1×min^−1 | MSS, assessment in words ([5]; EtOH/dH2O 75/25 (vol/vol)): good | ΔC [CEq − CMSS] ([5]; EtOH/dH2O 75/25 (vol/vol)): 5.51 mg×I^−1

O=c1c(-c2ccc(O)cc2)coc2cc(O)cc(O)c12.[K] [genistein potassium salt]
stability, solid form change by XRPD [7]: crystallizes to form genistein potassium salt dihydrate

O.O.O=c1c(-c2ccc(O)cc2)coc2cc(O)cc(O)c12.[K] [genistein potassium salt dihydrate]
maximum of water adsorbed (GVS) [2]: 16 wt % | moisture change (GVS) [2]: ca. 3% | solubility at 24 h ([8]; Water/slurry pH 4.5, ambient temperature): 0.04 mg/mL | solubility at 24 h ([8]; Water/slurry pH 6.7, ambient temperature): 0.057 mg/mL | solubility at 24 h ([8]; Water/slurry pH 7.5, ambient temperature): 0.069 mg/mL | disproportionation (XRPD) [4]: No signs of disproportionation | pH of the supernatant after slurrying [4]: 7.3
